Experimental data reported in paper PMC12141164, “Phase-1 study of vamotinib (PF-114), a 3rd generation BCR::ABL1 tyrosine kinase-inhibitor, in chronic myeloid leukaemia” (Annals of Hematology, 2025).
Where two headings read alike, the source gives them in different places.

What was measured:
[1] = Pharmacokinetics in plasma after single- and multiple-dose administration; format: in vivo, human
Description: Blood samples were obtained to evaluate pharmacokinetics and pharmacodynamics (Tables S1, S1.1, S1.2). Data on phosphorylated CrkL protein (pCrkL) concentration were evaluated in samples from 4 subjects.
Pharmacokinetic measurements were done on days 1 and 29–30 of treatment. […] Steady-state was reached after 8 days of dosing, Fig. 1.
PF-114 was determined in human plasma samples using validated analytical method. […] The analytical method used 200 µL of plasma sample for each analysis. Analyte was isolated from plasma by a solid-phase extraction procedure performed on Oasis MCX extraction columns.
According to the Protocol, population for the pharmacokinetic analysis consists of all patients, who took at least one dose of PF-114, with respect to which sufficient amount of data on concentration of the study drug in the blood. The analysis of data on pharmacokinetic properties of the drug is carried out in this population of patients. All PK analyses will be presented on two subsets described in more detail below:
The PK concentration set (PK-C): This set includes all treated subjects who have at least 1 measured concentration.
The PK parameter analysis set (PK-P): This set consists of subjects from PK-C, who have no major protocol violation relevant to the evaluation of Pharmacokinetics, and who have at least 1 estimated PK parameter. Listings include all available raw data without any exclusions.

[2] = tested on: BaF3 cells expressing BCR::ABL1^T315I; design: method as in PMID 25394714; conditions: read-out: IC50 of cytotoxicity; cited from earlier work
EPHA6 = conditions: kinase inhibition profiles; cited from earlier work
dogs = tested on: dogs; design: method as in PMID 25394714; conditions: pre-clinical toxicology; cited from earlier work
[3] = human, plasma, oral, 50 mg, Multiple-dose administration
[4] = human, plasma, oral, 50 mg, Single-dose administration
[5] = human, plasma, oral, 100 mg, Multiple-dose administration
[6] = human, plasma, oral, 100 mg, Single-dose administration
[7] = human, plasma, oral, 200 mg, Multiple-dose administration
[8] = human, plasma, oral, 200 mg, Single-dose administration
[9] = human, plasma, oral, 300 mg, Multiple-dose administration
[10] = human, plasma, oral, 300 mg, Single-dose administration
[11] = human, plasma, oral, 400 mg, Multiple-dose administration
[12] = human, plasma, oral, 400 mg, Single-dose administration
[13] = human, plasma, oral, 500 mg, Multiple-dose administration
[14] = human, plasma, oral, 500 mg, Single-dose administration
[15] = human, plasma, oral, 600 mg, Multiple-dose administration
[16] = human, plasma, oral, 600 mg, Single-dose administration
[17] = human, plasma, oral, 750 mg, Single-dose administration

SMILES: Cc1ccc(C(=O)Nc2ccc(CN3CCN(C)CC3)c(C(F)(F)F)c2)cc1C#Cc1nnc2ccccn12 [vamotinib]
- Ctrough, Mean ([1]; Multiple-dose administration, 50 mg): 7,35 ng/ml
- Ctrough, Mean ([1]; Multiple-dose administration, 100 mg): 8,90 ng/ml
- Ctrough, Mean ([1]; Multiple-dose administration, 200 mg): 21,92 ng/ml
- Ctrough, Mean ([1]; Multiple-dose administration, 300 mg): 22,45 ng/ml
- Ctrough, Mean ([1]; Multiple-dose administration, 400 mg): 35,34 ng/ml
- Ctrough, Mean ([1]; Multiple-dose administration, 500 mg): 38,40 ng/ml
- Ctrough, Mean ([1]; Multiple-dose administration, 600 mg): 49,78 ng/ml
- linearity of pharmacokinetics (concentration-time profiles) ([1]; dose range 50–750 mg): linear or near-linear pharmacokinetics
- half-life ([1]; human, plasma, oral): 13.5 h
- Cmax [1, 3]: 33.3 ng/mL
- Tmax [1, 3]: 1.9 h
- AUC(0-t) ([1]; human, plasma, oral, 50 mg, Multiple-dose administration, 50 mg, read-out: AUC0-24, Mean): 445 ng·h/mL
- Cmax [1, 4]: 25.3 ng/mL
- Tmax [1, 4]: 2.67 h
- AUC(0-t) ([1]; human, plasma, oral, 50 mg, Single-dose administration, 50 mg, read-out: AUC0-t, Mean): 252 ng·h/mL
- Cmax [1, 5]: 94 ng/mL
- Tmax [1, 5]: 3.36 h
- AUC(0-t) ([1]; human, plasma, oral, 100 mg, Multiple-dose administration, 100 mg, read-out: AUC0-24, Mean): 1260 ng·h/mL
- Cmax [1, 6]: 89.7 ng/mL
- Tmax [1, 6]: 4.67 h
- AUC(0-t) ([1]; human, plasma, oral, 100 mg, Single-dose administration, 100 mg, read-out: AUC0-t, Mean): 1070 ng·h/mL
- Cmax [1, 7]: 109 ng/mL
- Tmax [1, 7]: 3.36 h
- AUC(0-t) ([1]; human, plasma, oral, 200 mg, Multiple-dose administration, 200 mg, read-out: AUC0-24, Mean): 1580 ng·h/mL
- Cmax [1, 8]: 82.1 ng/mL
- Tmax [1, 8]: 3.46 h
- AUC(0-t) ([1]; human, plasma, oral, 200 mg, Single-dose administration, 200 mg, read-out: AUC0-t, Mean): 1060 ng·h/mL
- Cmax [1, 9]: 148 ng/mL
- Tmax [1, 9]: 4.52 h
- AUC(0-t) ([1]; human, plasma, oral, 300 mg, Multiple-dose administration, 300 mg, read-out: AUC0-24, Mean): 2260 ng·h/mL
- Cmax [1, 10]: 125 ng/mL
- Tmax [1, 10]: 3.58 h
- AUC(0-t) ([1]; human, plasma, oral, 300 mg, Single-dose administration, 300 mg, read-out: AUC0-t, Mean): 1630 ng·h/mL
- Cmax [1, 11]: 177 ng/mL
- Tmax [1, 11]: 4 h
- AUC(0-t) ([1]; human, plasma, oral, 400 mg, Multiple-dose administration, 400 mg, read-out: AUC0-24, Mean): 2710 ng·h/mL
- Cmax [1, 12]: 120 ng/mL
- Tmax [1, 12]: 4.72 h
- AUC(0-t) ([1]; human, plasma, oral, 400 mg, Single-dose administration, 400 mg, read-out: AUC0-t, Mean): 1740 ng·h/mL
- Cmax [1, 13]: 228 ng/mL
- Tmax [1, 13]: 4.04 h
- AUC(0-t) ([1]; human, plasma, oral, 500 mg, Multiple-dose administration, 500 mg, read-out: AUC0-24, Mean): 3490 ng·h/mL
- Cmax [1, 14]: 116 ng/mL
- Tmax [1, 14]: 3.96 h
- AUC(0-t) ([1]; human, plasma, oral, 500 mg, Single-dose administration, 500 mg, read-out: AUC0-t, Mean): 1500 ng·h/mL
- Cmax [1, 15]: 179 ng/mL
- Tmax [1, 15]: 3.62 h
- AUC(0-t) ([1]; human, plasma, oral, 600 mg, Multiple-dose administration, 600 mg, read-out: AUC0-24, Mean): 2800 ng·h/mL
- Cmax [1, 16]: 212 ng/mL
- Tmax [1, 16]: 4.65 h
- AUC(0-t) ([1]; human, plasma, oral, 600 mg, Single-dose administration, 600 mg, read-out: AUC0-t, Mean): 3020 ng·h/mL
- Cmax [1, 17]: 225 ng/mL
- Tmax [1, 17]: 4.5 h
- AUC(0-t) ([1]; human, plasma, oral, 750 mg, Single-dose administration, 750 mg, read-out: AUC0-t, Mean): 3290 ng·h/mL
- time of dosing to reach steady-state ([1]; once daily dosing): 8 days
- concentration in the blood during the day ([1]; starting from a dose of 200 mg): exceeds 75 nM
- IC50 [2]: 75 nM
- inhibition of EPHA6 (EPHA6): not
- Rash (dogs): Rash was seen
